Values after ≈ are worked out from the molar mass of the structure shown.
Assays:
[1] = system: Chlamydia Trachomatis D/UW-3/Cx; experiment: Chlamydia in vitro MIC, McCoy cells, immunofluorescence; format: cell-based; settings: 48 hours, read-out: MIC
[2] = system: Chlamydia Trachomatis B/TW-5/OT; experiment: as above; format: cell-based; settings: 48 hours, read-out: MIC
[3] = system: staphylococcus aureus (155); experiment: Clinical isolates, agar double dilution method; format: cell-based; settings: 155 clinical isolates of staphylococcus aureus; for MIC50: read-out: MIC50; for MIC90: read-out: MIC90
[4] = system: Mycoplasma Urealyticum and Mycoplasma Pneumoniae strains; experiment: Mycoplasma in vitro MIC (U-PPLO broth); format: cell-based; settings: for MIC: Mycoplasma, determined 4 times, final MIC (24 h), read-out: MIC; for Uu resistant effect: in words
Experimental: 1. Test methods: adding U-PPLO 0.8 ml to each pore of aseptic 12-pore cell culture plate (adding 0.9 ml to inoculum control pore and 1.0 ml to medium control pore).
2. Add 10^4CCU/ml Uu inoculum 0.1 ml to each experimental pore. The final dose in the pore is 10^3CCU/ml (the medium control pore will not be added with inoculum).
3. Divide into 3 groups (100 μg/ml, 10 μg/ml and 1 μg/ml antibiotic stock solution), Use aseptic Tip to add antibiotic for test to each pore: 100 μl, 50 μl, 25 μl, 12.5 μl according to the double degradation concentration gradient. (The inoculum and medium control pores will not be added with the antibiotic, and meanwhile the antibiotic control pore is arranged.)
4. Blend all pores evenly. Seal the culture plate by tapes and place it in a 37[…] box for culture.
5. On 17-24 hours after the test, observe and record the Uu growth situation. When Uu inoculum control pore presents a positive growth, the minimal antibiotic concentration, which can suppress the growth of Uu, is the MIC of sample.

[5] = system: staphylococcus aureus21; experiment: Curative effect on mouse with abdominal infection (ED50); format: in vivo, staphylococcus aureus; settings: Staphylococcus, AUREUS21, 168 h, staphylococcus aureus21, challenging dose 4.2 × 10^4 CFU/0.5 ml, deaths in 7 days, Bliss, read-out: ED50
Experimental: (§1) Test method: preparation of infection bacterial liquid: taking out the test bacterial liquid which is kept in a refrigerator at −80[…] to room temperature for about 1 h, then inoculating streptococcus pneumonia, pyogenic streptococcus and enterococcus absorbing 0.1 ml bacterial liquid respectively to 2 ml MH broth (add 10% inactivated horse serum), and inoculating 0.1 ml bacterial liquid of staphylococcus aureus to 2 ml MH broth according to the same method above; putting it in an incubator at 37[…] to be cultivated for 18 h, to obtain original bacterial liquid; diluting the original bacterial liquid with 5% gastric mucin to make animals infected with 100% lethal bacteria, to obtain infection bacterial liquid.
(§2) The clinical route of administration of carrimycin is proposed to be oral administration, thus intragastric administration is adopted in carrimychin test. Levoisovalerylspiramycin I (obtained in Embodiment 1) and of crystalline compound of levoisovalerylspiramycin I (prepared in Embodiment 27) are fed to animals via […].
(§3) After the mice are infected, respectively feed each mouse 0.2 ml via intragastric administration at 0.5 to 6 h, and they have no adverse reaction. Observe the number of deaths in 7 days, and calculate the 50% effective dose (ED50) of each drug for the infected mouse and compare the protective effect of drugs by Bliss program.

[6] = system: staphylococcus aureus76; experiment: as above; format: in vivo, staphylococcus aureus; settings: Staphylococcus, AUREUS76, 168 h, staphylococcus aureus76, challenging dose 5.8 × 10^4 CFU/0.5 ml, deaths in 7 days, Bliss, read-out: ED50
Experimental: as §1, §2, §3

[7] = system: staphylococcus aureus12; experiment: as above; format: in vivo, staphylococcus aureus; settings: Staphylococcus, AUREUS12, 168 h, staphylococcus aureus12, challenging dose 4.8 × 10^4 CFU/0.5 ml, deaths in 7 days, Bliss, read-out: ED50
Experimental: as §1, §2, §3

[8] = system: staphylococcus aureus16; experiment: as above; format: in vivo, staphylococcus aureus; settings: Staphylococcus, AUREUS16, 168 h, staphylococcus aureus16, challenging dose 5.2 × 10^3 CFU/0.5 ml, deaths in 7 days, Bliss, read-out: ED50
Experimental: as §1, §2, §3

[9] = system: S. epidermidis (115); experiment: Clinical isolates, agar double dilution method; format: cell-based; settings: Staphylococcus epidermidis, 115 clinical isolates of S. epidermidis; for MIC50: read-out: MIC50; for MIC90: read-out: MIC90
[10] = system: pyogenic streptococcus (93); experiment: Clinical isolates, agar double dilution method; format: cell-based; settings: 93 clinical isolates of pyogenic streptococcus; for MIC50: read-out: MIC50; for MIC90: read-out: MIC90
[11] = system: staphylococcus aureus21; experiment: MIC against the infecting test organism; format: cell-based, staphylococcus aureus; settings: read-out: MIC
[12] = system: streptococcus pneumoniae (112); experiment: Clinical isolates, agar double dilution method; format: cell-based; settings: 112 clinical isolates of streptococcus pneumoniae; for MIC50: read-out: MIC50; for MIC90: read-out: MIC90
[13] = system: gonococcus (10); experiment: Clinical isolates, agar double dilution method; format: cell-based; settings: 10 clinical isolates of gonococcus; for MIC50: read-out: MIC50; for MIC90: read-out: MIC90
[14] = system: Chlamydia Pneumoniae CWL-029; experiment: Chlamydia in vitro MIC, HEp-2 cells, immunofluorescence; format: cell-based; settings: Chlamydia pneumoniae, 72 h, Chlamydia Pneumoniae CWL-029, HEp-2 cells, read-out: MIC
[15] = system: 12 strains of bacteria; experiment: Protective effect on mouse infected with 12 strains of bacteria; format: in vivo; settings: in words
Experimental: as §1, §2, §3

| Compound | MIC [1] [µg/mL] | MIC [2] [µg/mL] | MIC50 [3] [µg/mL] | MIC90 [3] [µg/mL] | Uu resistant effect [4] | ED50 [5] [mg/kg] | ED50 [6] [mg/kg] | ED50 [7] [mg/kg] | ED50 [8] [mg/kg] | MIC50 [9] [µg/mL] | MIC90 [9] [µg/mL] | MIC50 [10] [µg/mL] | MIC90 [10] [µg/mL] | MIC [11] [µg/mL] | MIC50 [12] [µg/mL] | MIC90 [12] [µg/mL] | MIC range [13] [µg/mL] | MIC50 [13] [µg/mL] | MIC90 [13] [µg/mL] | MIC [14] [µg/mL] | also measured |
| --- | --- | --- | --- | --- | --- | --- | --- | --- | --- | --- | --- | --- | --- | --- | --- | --- | --- | --- | --- | --- | --- |
| COC1C(O)CC(=O)OC(C)C/C=C/C=C/C(OC2CCC(N(C)C)C(C)O2)C(C)CC(CC=O)C1OC1OC(C)C(OC2CC(C)(O)C(OC(=O)CC(C)C)C(C)O2)C(N(C)C)C1O (stereo not shown) [Levoisovalerylspiramycin I, levoisovalerylspiramycin I] | 0.25 (≈ 0.27 µM) | 0.25 (≈ 0.27 µM) | 1 (≈ 1.08 µM) | 64 (≈ 69 µM) | favorable Uu resistant effect | 42.7 | 24.4 | 110 | 23.5 | 1 (≈ 1.08 µM) | 32 (≈ 34.5 µM) | 0.25 (≈ 0.27 µM) | 32 (≈ 34.5 µM) | 0.5 (≈ 0.539 µM) | 0.12 (≈ 0.129 µM) | 2 (≈ 2.16 µM) | 0.12 to 16 | 1 (≈ 1.08 µM) | 4 (≈ 4.31 µM) | 0.016 (≈ 0.0173 µM) | MIC [4]: 0.025 to 0.125 µg/mL (≈ 0.027 to 0.135 µM); protective effect (curative effect) on infected mouse [15]: good protective effect |
| COC1C(OC(C)=O)CC(=O)OC(C)C/C=C/C=C/C(OC2CCC(N(C)C)C(C)O2)C(C)CC(CC=O)C1OC1OC(C)C(OC2CC(C)(O)C(OC(=O)CC(C)C)C(C)O2)C(N(C)C)C1O (stereo not shown) [Levoisovalerylspiramycin II, levoisovalerylspiramycin II] | 0.25 (≈ 0.258 µM) | 0.25 (≈ 0.258 µM) | 1 (≈ 1.03 µM) | 32 (≈ 33 µM) | favorable Uu resistant effect | 38.9 | 22.3 | 108 | 20.9 | 1 (≈ 1.03 µM) | 64 (≈ 66 µM) | 0.25 (≈ 0.258 µM) | 32 (≈ 33 µM) | 0.5 (≈ 0.516 µM) | 0.12 (≈ 0.124 µM) | 2 (≈ 2.06 µM) | 0.12 to 16 | 1 (≈ 1.03 µM) | 4 (≈ 4.13 µM) | ≤ 0.016 | MIC [4]: 0.025 to 0.125 µg/mL (≈ 0.0258 to 0.129 µM) |
| CCC(=O)OC1CC(=O)OC(C)C/C=C/C=C/C(OC2CCC(N(C)C)C(C)O2)C(C)CC(CC=O)C(OC2OC(C)C(OC3CC(C)(O)C(OC(=O)CC(C)C)C(C)O3)C(N(C)C)C2O)C1OC (stereo not shown) [Levoisovalerylspiramycin III, levoisovalerylspiramycin III] | 0.25 (≈ 0.254 µM) | 0.25 (≈ 0.254 µM) | 2 (≈ 2.03 µM) | 32 (≈ 32.5 µM) | favorable Uu resistant effect | 38.9 | 22.3 | 108 | 20.9 | 1 (≈ 1.02 µM) | 32 (≈ 32.5 µM) | 0.25 (≈ 0.254 µM) | 32 (≈ 32.5 µM) | 0.5 (≈ 0.509 µM) | 0.12 (≈ 0.122 µM) | 4 (≈ 4.07 µM) | 0.12 to 16 | 1 (≈ 1.02 µM) | 4 (≈ 4.07 µM) | 0.016 (≈ 0.0163 µM) |  |
| CC[C@H]1OC(=O)[C@H](C)[C@@H](O[C@H]2C[C@@](C)(OC)[C@@H](O)[C@H](C)O2)[C@H](C)[C@@H](O[C@@H]2O[C@H](C)C[C@H](N(C)C)[C@H]2O)[C@](C)(O)C[C@@H](C)CN(C)[C@H](C)[C@@H](O)[C@]1(C)O [azithromycin, reference compound] | 0.25 (≈ 0.334 µM) | 0.5 (≈ 0.668 µM) | 2 (≈ 2.67 µM) | > 64 |  | 143 | 58.8 | 120 | 32 | 8 (≈ 10.7 µM) | > 64 | 0.5 (≈ 0.668 µM) | > 64 | 4 (≈ 5.34 µM) | 0.25 (≈ 0.334 µM) | 8 (≈ 10.7 µM) | 0.12 to 64 | 2 (≈ 2.67 µM) | 8 (≈ 10.7 µM) | 0.032 (≈ 0.0427 µM) |  |
| CC[C@H]1OC(=O)[C@H](C)[C@@H](O[C@H]2C[C@@](C)(OC)[C@@H](O)[C@H](C)O2)[C@H](C)[C@@H](O[C@@H]2O[C@H](C)C[C@H](N(C)C)[C@H]2O)[C@](C)(O)C[C@@H](C)C(=O)[C@H](C)[C@@H](O)[C@]1(C)O [erythrocin, reference compound] | 0.5 (≈ 0.681 µM) | 0.5 (≈ 0.681 µM) | 1 (≈ 1.36 µM) | > 64 | poorest | 214 | 64.2 | 266 | 82.4 | 8 (≈ 10.9 µM) | > 64 | 0.5 (≈ 0.681 µM) | > 64 | 4 (≈ 5.45 µM) | 0.25 (≈ 0.341 µM) | 64 (≈ 87.2 µM) | 0.12 to 64 | 1 (≈ 1.36 µM) | 8 (≈ 10.9 µM) | ≤ 0.016 | MIC [4]: 5 µg/mL (≈ 6.81 µM) |
